Reference: the supplement of paper PMC8882468
± gives the standard deviation of the averaged measurements.

Columns and labels:
Assay in all cases: CTG-3D luminescence at 96 h relative to day-0 seeding control (ratio to day 0); higher = more growth / less cytotoxicity
HCI-019 = tested on: HCI-019 (organoid from a triple-negative breast cancer xenograft)
Procedure: (§1)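 PDX-derived breast cancer organoids (PDxO) in 384-well Matrigel plates, 8-point dose (0.000000625-100 uM), 96 h at 37 C; CellTiter-Glo 3D luminescence normalised to the day-0 seeding control (mean of 4 technical replicates over mean of 4 day-0 wells).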

HCI-003.E2 = tested on: HCI-003.E2 (organoid from an ER-positive breast cancer xenograft)
Procedure: as §1

HCI-027 = tested on: HCI-027 (organoid from a triple-negative breast cancer xenograft)
Procedure: as §1

HCI-005.E2 = tested on: HCI-005.E2 (organoid from a breast cancer xenograft with a HER2-positive history)
Procedure: as §1

HCI-023 = tested on: HCI-023 (organoid from a triple-negative breast cancer xenograft)
Procedure: as §1

HCI-024 = tested on: HCI-024 (organoid from a breast cancer xenograft)
Procedure: as §1

HCI-011.E2 = tested on: HCI-011.E2 (organoid from an ER-positive breast cancer xenograft)
Procedure: as §1

HCI-008 = tested on: HCI-008 (organoid from a HER2-enriched breast cancer xenograft)
Procedure: as §1

O=c1[nH]cc(F)c(=O)[nH]1 [5-fluorouracil]
CTG-3D luminescence at 96 h
Conditions	12.5 pM	0.00025 µM	0.005 µM	0.1 µM	1 µM	10 µM	100 µM	625 fM
HCI-008, days in culture: 228	1.95 ± 0.28	2.08 ± 0.21	1.74 ± 0.25	1.52 ± 0.27	1.51 ± 0.32	1.51 ± 0.029	0.917 ± 0.042	1.88 ± 0.097
HCI-008, days in culture: 244	1.38	1.81	2.06	1.88	1.6	1.53	1.03	2.2
HCI-011.E2, days in culture: 74	1.83	2.05	1.91	1.77	2.19	2.63	1.57	1.62
HCI-019, days in culture: 110	2.01	1.66	1.28	2.55	1.05	2.15	1.45	2.02
HCI-019, days in culture: 131	2.46	3.61	3.38	4.08	2.65	2.93	1.89	3.71
HCI-019, days in culture: 152	2.48	2.79	2.59	1.85	1.99	2.54	1.96	2.62
HCI-023, days in culture: 111	1.56	1.34	0.973	1.17	0.928	0.875	0.571	1.57
HCI-023, days in culture: 128	1.51 ± 0.11	1.68 ± 0.4	1.54 ± 0.13	1.89 ± 0.27	1.4 ± 0.022	1.92 ± 0.27	1.01 ± 0.18	1.58 ± 0.063
HCI-024, days in culture: 105	1.58	1.5	1.45	1.66	1.59	1.53	0.681	2.03
HCI-024, days in culture: 122	2.23	2.19	1.64	1.97	1.98	2.04	0.857	3.11
HCI-024, days in culture: 163	2.3	2.61	1.89	2.32	2.29	1.9	1.21	2.13
HCI-027, days in culture: 176	2.05	1.56	2.56	1.65	2.29	0.753	0.527	1.98
HCI-027, days in culture: 194	1.69	1.22	1.34	1.6	1.41	1.29	0.526	1.51
HCI-027, days in culture: 201	1.96	1.99	2.23	1.8	1.26	1.05	0.398	1.53

CTG-3D luminescence at 96 h
Conditions	12.5 pM	0.00025 µM	0.005 µM	0.1 µM	1 µM	10 µM	100 µM	625 fM
HCI-003.E2	2.25 ± 0.87	2.06 ± 0.55	1.93 ± 0.35	2.08 ± 0.4	1.85 ± 0.5	1.87 ± 0.53	0.993 ± 0.17	2.19 ± 0.32
HCI-005.E2	1.91 ± 0.23	1.66 ± 0.53	1.64 ± 0.57	2.48 ± 0.61	1.78 ± 0.58	1.18 ± 0.25	0.891 ± 0.1	1.69 ± 0.15
HCI-011.E2	1.56 ± 0.28	1.46 ± 0.53	1.7 ± 0.38	1.81 ± 0.82	1.73 ± 0.95	2.08 ± 0.53	1.35 ± 0.6	1.63 ± 0.65
